Measured values from patent US10202349B2, “Asymmetric bis-acridines with antitumour activity and their uses” (POLITECHNIKA GDAŃSKA, priority 2015, dated 2019).
Several values for one entry are separate records, joined by “and”; a condition that tells them apart may be missing. Identical values can stand only once.

Experiments:
DU-145 = experiment: Cytotoxic activity in vitro, SRB; assay type: cell-based, human
Method in brief: (§1)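 Human tumour cells are exposed to the bis-acridines, and growth is then quantified by sulforhodamine B staining as recommended by the NCI. The EC50 values derive from comparison with control cells and mark half-maximal inhibition of proliferation.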

HCT-116 = experiment: Cytotoxic activity in vitro, SRB; assay type: cell-based, human
Method in brief: as §1

PANC-1 = experiment: Cytotoxic activity in vitro, SRB; assay type: cell-based, human
Method in brief: as §1

H-460 = experiment: Cytotoxic activity in vitro, SRB; assay type: cell-based, human
Method in brief: as §1

UM-UC-3 = experiment: Cytotoxic activity in vitro, SRB; assay type: cell-based, human
Method in brief: as §1

HT-29 = experiment: Cytotoxic activity in vitro, SRB; assay type: cell-based, human
Method in brief: as §1

MDA-MB-231 = experiment: Cytotoxic activity in vitro, SRB; assay type: cell-based, human
Method in brief: as §1

MiaPaCa-2 = experiment: Cytotoxic activity in vitro, SRB; assay type: cell-based, human
Method in brief: as §1

AsPC-1 = experiment: Cytotoxic activity in vitro, SRB; assay type: cell-based, human
Method in brief: as §1

PC-3 = experiment: Cytotoxic activity in vitro, SRB; assay type: cell-based, human
Method in brief: as §1

MCF-7 = experiment: Cytotoxic activity in vitro, SRB; assay type: cell-based, human
Method in brief: as §1

HCT 116 = experiment: Anti-neoplasmic activity against xenograft in hairless mice; assay type: in vivo
Method in brief: (§2)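 TGI calculated as 100−(ΔVT/ΔVC×100), using mean volume change from therapy start in treated versus control mice. Xenografts: s.c. 5×10^6 cells, female Crl:Nu-Foxn1nu mice aged 5 weeks. Compounds dosed i.v. twice weekly for 4 weeks at three doses; tumours measured twice weekly.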

PC 3 = experiment: as above; assay type: in vivo; conditions: day 39
Method in brief: (§3)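 Human tumour cells (5×10^6 per mouse) implanted subcutaneously in 5-week female nude mice; randomised at ~100–200 mm^3 tumour volume. Dosing i.v. or i.p., twice weekly (thrice for fast growers) over 4 weeks, three dose levels. Growth inhibition computed from volume change versus controls.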

DU 145 = experiment: as above; assay type: in vivo
Method in brief: as §3

Capan-2 = experiment: Cytotoxic activity in vitro, SRB; assay type: cell-based, human
Method in brief: as §1

BxPC-3 = experiment: Cytotoxic activity in vitro, SRB; assay type: cell-based, human
Method in brief: as §1

MDA MB 231 = experiment: Anti-neoplasmic activity against xenograft in hairless mice; assay type: in vivo
Method in brief: as §2

BXPC 3 = experiment: as above; assay type: in vivo
Method in brief: as §2

AsPC 1 = experiment: as above; assay type: in vivo
Method in brief: as §2

PANC 1 = experiment: as above; assay type: in vivo
Method in brief: as §3

Mia Pa Ca 2 = experiment: as above; assay type: in vivo
Method in brief: as §2

UM UC 3 = experiment: as above; assay type: in vivo; conditions: series 11, i.v., single 6 mg/kg, total 42 mg/kg, day 23
Method in brief: as §2

H 460 = experiment: as above; assay type: in vivo; conditions: series 16, i.v., single 1 mg/kg, total 5 mg/kg, day 28
Method in brief: as §3

SMILES | EC50 (DU-145) [nM] | EC50 (HCT-116) [nM] | EC50 (PANC-1) [nM] | EC50 (H-460) [nM] | EC50 (UM-UC-3) [nM] | EC50 (HT-29) [nM] | EC50 (MDA-MB-231) [nM] | EC50 (MiaPaCa-2) [nM] | EC50 (AsPC-1) [nM] | EC50 (PC-3) [nM] | EC50 (MCF-7) [nM] | EC50 (Capan-2) [nM] | EC50 (BxPC-3) [nM] | other results
CN(CCCNc1c2ccccc2nc2cccc([N+](=O)[O-])c12)CCCNc1ccc([N+](=O)[O-])c2[nH]c3ccc(O)cc3c(=O)c12 [C-1906, 9-{N-[(7-hydroxy-4-nitro-9(10H)acridono-1-yl)aminopropyl]-N-methylaminopropylamino}-1′-nitroacridone] | 43 | 15 | 32 | 14 | 14 | 22 | 20 | 24 | 135 | 52 | 74 | – | – | TGI [%] [100 − (ΔVT/ΔVC × 100] (HCT 116; series 9, i.v., single 1 mg/kg, total 5 mg/kg, day 16, *at least half of animals did not survive): 32* %; TGI [%] [100 − (ΔVT/ΔVC × 100] (PC 3; series 15, i.p., single 2 mg/kg, total 12 mg/kg): 52%; TGI [%] [100 − (ΔVT/ΔVC × 100] (DU 145; series 1, i.p., single 2 mg/kg, total 6 mg/kg, day 35, *at least half of animals did not survive): 60* %
CN(CCCNc1c2ccccc2nc2cccc([N+](=O)[O-])c12)CCCNc1ccc2ncn3c4ccccc4c(=O)c1c23 [C-2028, 9-{N-[(imidazo[4,5,1-de]-acridin-6-on-5-yl)aminopropyl]-N-methylaminopropylamino}-1′-nitroacridine] | 23 | 17 | 24 | 15 | 10 | 37 | 17 | 79 | 61 | 28 | 53 | 11 | 74 | TGI [%] [100 − (ΔVT/ΔVC × 100] (MDA MB 231; series 19, i.v., single 2 mg/kg, total 16 mg/kg, day 25): 44%; TGI [%] [100 − (ΔVT/ΔVC × 100] (HCT 116; series 7, i.v., single 4 mg/kg, total 24 mg/kg, day 15): 34%; TGI (BXPC 3; BXPC-3, significant activity): 64%; TGI [%] [100 − (ΔVT/ΔVC × 100] (BXPC 3; series 21, i.v., single 6 mg/kg, total 30 mg/kg, day 37): 64%; TGI [%] [100 − (ΔVT/ΔVC × 100] (BXPC 3; series 33, i.v., single 4 mg/kg, total 32 mg/kg, day 36): 43%; TGI (AsPC 1; ASP-1, threshold activity): < 50%; TGI [%] [100 − (ΔVT/ΔVC × 100] (AsPC 1; series 23, i.v., single 6 mg/kg, total 48 mg/kg, day 46): 35%; TGI (PANC 1; PANC-1 cancer, three consecutive experimental runs): 71% and 90% and 82%; TGI [%] [100 − (ΔVT/ΔVC × 100] (PANC 1; series 10, i.v., single 1 mg/kg, total 10 mg/kg, day 31): 71%; TGI [%] [100 − (ΔVT/ΔVC × 100] (PANC 1; series 14, i.v., single 4 mg/kg, total 36 mg/kg, day 45): 90%; TGI [%] [100 − (ΔVT/ΔVC × 100] (PANC 1; series 29, i.v., single 4 mg/kg, total 20 mg/kg, day 36): 59%; TGI [%] [100 − (ΔVT/ΔVC × 100] (PANC 1; series 32, i.v, single 2 mg/kg, total 16 mg/kg, day 40): 82%; TGI [%] [100 − (ΔVT/ΔVC × 100] (PC 3; series 12, i.p., single 1 mg/kg, total 8 mg/kg): 30%; TGI (Mia Pa Ca 2; MiaPa Ca2, threshold activity): < 50%; TGI [%] [100 − (ΔVT/ΔVC × 100] (Mia Pa Ca 2; series 12, i.v., single 6 mg/kg, total 42 mg/kg, day 36): 52%; TGI [%] [100 − (ΔVT/ΔVC × 100] (Mia Pa Ca 2; series 28, i.v., single 2 mg/kg, total 8 mg/kg, day 11, *at least half of animals did not survive): 68* %; TGI [%] [100 − (ΔVT/ΔVC × 100] (UM UC 3): 54%; TGI [%] [100 − (ΔVT/ΔVC × 100] (DU 145; series 13, i.v., single 4 mg/kg, total 32 mg/kg, day 40): 46%; TGI [%] [100 − (ΔVT/ΔVC × 100] (H 460): 31%
O=c1c2ccccc2n2cnc3ccc(NCCCN4CCN(CCCNc5c6ccccc6nc6cccc([N+](=O)[O-])c56)CC4)c1c32 [C-2041, 1-[3-(imidazo[4,5,1-de]-acridin-6-on-5-yl)aminopropyl]-4-[3′-(1′-nitroacridin-1-yl)-aminopropyl]piperazine] | 22 | 25 | 24 | – | – | – | 21 | 39 | 69 | – | 82 | 32 | 54 | TGI [%] [100 − (ΔVT/ΔVC × 100] (MDA MB 231; series 34, i.v., single 4 mg/kg, total 32 mg/kg, day 32): 53%; TGI [%] [100 − (ΔVT/ΔVC × 100] (BXPC 3; series 21, i.v., single 2 mg/kg, total 16 mg/kg, day 44): 81%; TGI [%] [100 − (ΔVT/ΔVC × 100] (BXPC 3; series 33, i.v., single 2 mg/kg, total 16 mg/kg, day 32): 48%; TGI [%] [100 − (ΔVT/ΔVC × 100] (AsPC 1; series 23, i.p., single 2 mg/kg, total 16 mg/kg, day 39): 29%; TGI [%] [100 − (ΔVT/ΔVC × 100] (PANC 1; series 17, i.v., single 2 mg/kg, total 16 mg/kg, day 60): 76%; TGI [%] [100 − (ΔVT/ΔVC × 100] (PANC 1; series 27, i.v., single 2 mg/kg, total 16 mg/kg, day 33): 83%; TGI [%] [100 − (ΔVT/ΔVC × 100] (PANC 1; series 32, i.v., single 1 mg/kg, total 16 mg/kg, day 33): 82%; TGI [%] [100 − (ΔVT/ΔVC × 100] (Mia Pa Ca 2; series 28, i.v., single 6 mg/kg, total 12 mg/kg, day 15, *at least half of animals did not survive): 38* %; TGI [%] [100 − (ΔVT/ΔVC × 100] (DU 145; series 18, i.v., single 2 mg/kg, total 16 mg/kg, day 33): 61%
